Consider four compounds from patent US12576097B2, “Anti-tumor effective component of Hedyotis diffusa, preparation method therefor and use thereof” (Guangdong New Ear Life Technology Co., Ltd., priority 2020, dated 2026).

Entries after “also recorded” stand apart in the source; their conditions may differ. Marks after values point to notes of the source that are not given here.

The subject of assay [1] is human liver cancer Hep-G2 cells. The assay can be described thus: Inhibition rate on human liver cancer Hep-G2 cells (CCK-8). Type of assay: cell-based. The settings on record: 24 h; for inhibition rate: 3 mg/mL drug solutions. The procedure:
A cryopreservation tube containing liver cancer Hep-G2 cells was taken out from a liquid nitrogen tank, quickly placed in a water bath at 38-39° C., and continuously shaken to be fully thawed within 1 min. The cryopreservation tube was centrifuged at 800 r/min for 9 min, and sprayed with 75% alcohol on the outside thereof, and then put into a ultra-clean table. The resulting supernatant was sucked and discarded. 1 ml of DMEM complete medium was added, and a mixture of the cells and the DMEM complete medium was blown evenly, and then the cells were transferred to a 25 ml culture dish. 6-8 ml of DMEM complete medium was added, and a mixture of the cells and the DMEM complete medium was gently blown evenly, and put into a constant temperature incubator at 37° C. with 5% CO2.
The old medium in the item 2.1 was sucked out. 2 ml of PBS buffer solution was added, and the cells were washed by gently shaking the culture flask. The PBS buffer solution was sucked out to remove the loose, dead and senescent cells and their metabolic wastes, and the cells were washed for 2-3 times. 2 ml of trypsin was added, and the culture dish was gently shaken for 30 s. After the trypsin was sucked out, the culture dish was put into the incubator for full digestion for 3 min, and 2 ml of fresh DMEM complete culture was added. The cells were gently blown and dispersed into individual cells under a microscope, and then 6-8 ml of fresh DMEM complete medium was added and the cells were incubated in a constant temperature incubator.
2 mL trypsin was added into the cells cultured in the item 2.2 in the logarithmic growth phase and the cells were digested for 30 s. After the trypsin was sucked out, the culture dish was placed into the incubator for full digestion for 3 min, and 2 mL of fresh medium was added. The cells were gently blown to disperse the cells into individual cells under the microscope. 10 μL of cell suspension and 10 μL of 0.4% Trypan blue staining solution were mixed well to fully stain the cells. 10 μL of the stained cell suspension was added to a cell counting plate, and the number of cells was counted by a fully automatic cell counter. The cell suspension was diluted to 2×10^5 cells/mL with a DMEM complete medium. 100 μL of cell suspension was sucked with a multichannel pipette and seeded into a 96-well plate and incubated in a constant temperature incubator at 37° C. with 5% CO2 for 24 h.
30 mL of DMEM complete medium was accurately measured, 30 μL of DMSO was added, and uniform mixing was conducted to prepare 0.1% DMSO medium. […] The kaempferol solution and the methyl ester solution having the above concentrations were uniformly mixed to prepare drug solutions having the desired ratio based on the mass ratio of kaempferol to methyl ester being 1:1, 1:2, 1:3, 1:4, 1:5, 5:1, 4:1, 3:1 and 2:1, 400 μL of each drug solution. 1 mg/mL of 5-fluorouracil solution was diluted to a concentration of 800, 600, 400, 200, 100, 50, 25 μg/mL, respectively, 400 μL of each drug solution.
The old medium in the 96-well plate in the item 2.3 was sucked out, and 100 μL of PBS buffer solution was added to each well to remove the loose, dead and senescent cells and their metabolic wastes. After that, the PBS buffer solution was sucked out. 100 μL of the prepared drug solution was added to each well, 3 wells in parallel. A negative control was set up, in which an equal volume of DMEM complete medium containing 0.1 vol % DMSO was added to each well, 3 wells in parallel. A blank control was a DMEM complete medium containing 0.1 vol % DMSO free of cells, 3 wells in parallel. The cells were incubated for 24 h in a constant temperature incubator at 37° C. with 5% CO2.
The DMEM complete medium containing 0.1 vol % DMSO in the drug solutions and negative control in the 96-well plate in the item 2.5 were sucked out. […]

Assay [2] in a line: Spleen and thymus weight and blood count of S180 tumor-bearing mice. It counts as in vivo, ICR mice. The settings on record: for relative spleen weight compared with model group: FIG. 5; for relative thymus weight compared with model group: FIG. 6; for number of leukocytes compared with model group: FIG. 7; for percentage of lymphocytes compared with model group: FIG. 8. The procedure:
(§1) 168 ICR class II male mice with a weight of 18-22 g were used. The mice were kept under the conditions of the item 2.2 for adaptive feeding for four days before the experiment. After four days, the mice were weighed and their autonomy was measured. […] Each mouse was inoculated with S180 tumor according to the method in the item 2.3, and the drug was administered by gavage after inoculation.
(§2) A appropriate amount of test samples were weighed precisely, and prepared into test sample solutions having the desired concentrations by using a 5 vol % ethanol aqueous solution as a solvent, i.e.: the effective parts of 5 mg/kg, 10 mg/kg and 20 mg/kg correspond to the test sample solutions of the groups of the effective part 5, effective part 10, and effective part 20, respectively; E-6-O-(p-coumaroyl)scandoside methyl ester of 2.5 mg/kg, 5 mg/kg, 10 mg/kg, and 20 mg/kg correspond to the test sample solutions of the groups of methyl ester 2.5, methyl ester 5, methyl ester 10 and methyl ester 20, respectively; kaempferol-3-O-[2-O-(6-O-E-feruloyl)-β-D-glucopyranosyl]-β-D-galactopyranose of 2.5 mg/kg, 5 mg/kg, 10 mg/kg and 20 mg/kg correspond to the test sample solutions of the groups of kaempferol 2.5, kaempferol 5, kaempferol 10 and kaempferol 20, respectively. […] Each mouse was administered by gavage at a dose of 0.2 ml/10 g. During the administration period, the mice were fed at 3 g/mouse and ingested water and food freely. All mice were continuously administered for 9 days, and sacrificed by decapitation on day 10. Blood, tumor, liver, spleen, and thymus of mice were collected. The blood collected was placed in a low temperature environment and sent out for blood check. The weight of the tumor, liver, spleen, and thymus and the size of the tumor were recorded.
(§3) The recorded results were expressed as mean plus or minus standard deviation (X±SD), and the data were analyzed by using statistical software SPSS 11.5 software.

For assay [3], the system named is Solid tumor cell line S180. The assay can be described thus: In-vivo anti-tumor experiment after S180 tumor inoculation in mice. Details: species or system ICR mice. To be noted: 9 days; for relative tumor weight mean ± SD: S180 tumor-bearing ICR mice; for inhibition rate: vs model group. The procedure: Solid tumor cell line S180 cryopreservation tube were taken out from a liquid nitrogen tank and quickly placed into water at 37° C. with occasional shaking. After cryopreserved cell mother liquor was thawed, the lid edge of the cryopreservation tube was wiped with an alcohol swab. The thawed cell liquor was injected intraperitoneally into the peritoneal cavities of ICR mice by a syringe. The mice were kept at room temperature of 25±5° C., humidity of 60±10%, natural light, and free to ingest food and water. After about one week, ascites in the peritoneal cavities of the ICR mice were sucked by a syringe and injected into the peritoneal cavities of new ICR mice at a dose of 0.5 ml per mouse for passage for standby application.
ICR class II mice, weighing about 18-22 g. Feeding conditions: room temperature of 25±5° C., humidity of 60±10%, natural light, free intake of water, and all mice were kept in the feeding environment for adaptive feeding for four days, fasted for 12 h before the experiment, free intake of water.
(§4) The experimental instruments were placed in a clean table and sterilized for about 30 min by turning on a UV lamp. The mice that were injected with ascites (about one week) were sacrificed by cervical dislocation, and abdomens of the mice were wiped with an alcohol swab. A 20 ml syringe was selected to suck the ascites (milky white is preferred) from the mice. The sucked ascites were placed in a sterile vial, and the vial was placed in a small box with ice. A certain amount of ascites was sucked onto a counting plate and placed under a microscope for counting, and the number of the cells was 10^7 as a base for tumor inoculation (1:2) and passage (1:5).
(§5) The adaptively fed ICR class II male mice were taken, and wiped with an alcohol swab on the armpit areas of the right forelimbs. The axillary cavities of the right forelimbs of the mice were inoculated with diluted mice ascite cell (10^7 cells) suspension at 0.2 ml per mouse. After tumor inoculation, the mice were fed and watered freely. One hour later, the drug was administered by gavage.
as §1, §2

The test system of assay [4] is Solid tumor cell line S180. The assay can be described thus: In-vivo anti-tumor experiment of E-6-O-(p-coumaroyl)scandoside methyl ester and its metabolite p-coumaric acid (S180 tumor). More on the design: species or system ICR mice. To be noted: 10 mg/kg by gavage, 9 days. As for the experimental part:
as §4, §5
30 ICR class II male mice with a weight of 18-22 g were used. The mice were adaptively fed for four days under the conditions of the item 2.2 before the experiment. After four days, the mice were weighed and their autonomy was measured. The ICR mice were randomly divided into three groups, namely: a model group, methyl ester 10, p-coumaric acid 10, 10 mice in each group. Each mouse was inoculated with S180 tumor according to the method of the item 2.3, and the drug was administered by gavage after inoculation.
The appropriate amount of test samples were weighed precisely and prepared into test sample solutions having the desired concentrations by using a 5 vol % ethanol aqueous solution as a solvent, i.e.: E-6-O-(p-coumaroyl)scandoside methyl ester of 10 mg/kg; p-coumaric acid of 10 mg/kg. […] The blank group was given a solvent, the positive drug control group was given the cyclophosphamide solution, and the other groups were given the corresponding drugs and doses. Each mouse was administered by gavage at a dose of 0.2 ml/10 g. The mice were fed at 3 g/mouse and ingested water and food freely during the administration period. All mice were continuously administered for 9 days and sacrificed by decapitation on day 10. Blood, tumor, liver, spleen and thymus of the mice were collected. The blood obtained was placed in a low-temperature environment and sent out for blood check. The weight of the tumor, liver, spleen and thymus and the size of the tumor were recorded.
as §3

For `O=c1[nH]cc(F)c(=O)[nH]1` [5-Fluorouracil, 5-fluorouracil], at 25 µg/mL the inhibition in assay [1] (Homo sapiens, HepG2, 25 μg/mL) was 7.34%. In assay [1] (Homo sapiens, HepG2, 50 μg/mL), the inhibition at 50 µg/mL was 11.3%. This compound also had an inhibition at 100 µg/mL in assay [1] (Homo sapiens, HepG2, 100 μg/mL) of 13.9%. In assay [1] (Homo sapiens, HepG2, 200 μg/mL), this compound displayed an inhibition at 200 µg/mL of 17.8%. In addition, testing at 400 µg/mL in assay [1] (Homo sapiens, HepG2, 400 μg/mL) gave an inhibition of 39.5%. In addition, at 600 µg/mL the inhibition in assay [1] (Homo sapiens, HepG2, 600 μg/mL) was 56.1%. The inhibition at 800 µg/mL in assay [1] (Homo sapiens, HepG2, 800 μg/mL) came out at 61.5%. The inhibition at 1000 µg/mL in assay [1] (Homo sapiens, HepG2, 1000 μg/mL) was 68%.

Turning to `O=P1(N(CCCl)CCCl)NCCCO1` (stereo not shown) [Positive control, Cyclophosphamide, reference compound], in assay [2] (20 mg/kg), the “number of erythrocytes compared with model group” value is “lower”, the “relative spleen weight compared with model group” value is listed as “decrease; also recorded: lower”, the “relative thymus weight compared with model group” value is reported as “increase” and the “number of leukocytes compared with model group” value is listed as “significant decrease; also recorded: lower”. In assay [2] (20 mg/kg), the “percentage of lymphocytes compared with model group” value is given as “increase”. In assay [3] (20 mg/kg by gavage), the “relative tumor weight mean ± SD” value is listed as 3.56 ± 0.77* 10^−2 and the inhibition rate is listed as 57.19%.

For `O=C(O)/C=C/c1ccc(O)cc1` [p-coumaric acid, reference compound], in assay [4] (S180 tumor-bearing ICR mice), the “relative tumor weight mean ± SD” value is listed as 6.07 ± 2.91* 10^−2. In assay [4] (vs model group), the inhibition rate stood at 17.20%.

Turning to “kaempferol-3-O-[2-O-(6-O-E-feruloyl)-β-D-glucopyranosyl]-β-D-galactopyranose”, the “relative spleen weight compared with model group” value in assay [2] (5 mg/kg) is given as “increase”. In addition, in assay [2] (5 mg/kg), the “relative thymus weight compared with model group” value is listed as “increase”. Besides, in assay [2] (5 mg/kg), the “number of leukocytes compared with model group” value is “significant decrease”. Moreover, the “percentage of lymphocytes compared with model group” value in assay [2] (5 mg/kg) is “increase”. Further, the inhibition rate in assay [1] (1st measurement) came out at 18.7%; in assay [1] (2nd measurement), 12.07%; in assay [1] (3rd measurement), 19.28%; in assay [3] (2.5 mg/kg by gavage) it was 15.76%; in assay [3] (5 mg/kg by gavage), 45.96%; in assay [3] (5 mg/kg by gavage, listed as kaempferol-3-O-[2-O-(6-O-E-feruloyl)-β-D-glucopyranosyl]-β-D-galactopyranose) it was 45.96%. Besides, the inhibition rate worked out at 27.36% in assay [3] (10 mg/kg by gavage) and 32.75% in assay [3] (20 mg/kg by gavage). The “relative tumor weight mean ± SD” value in assay [3] (2.5 mg/kg by gavage) is listed as 7.01 ± 1.56 10^−2; in assay [3] (5 mg/kg by gavage) it was 4.49 ± 1.95 10^−2; in assay [3] (10 mg/kg by gavage) it was 6.04 ± 2.78 10^−2; in assay [3] (20 mg/kg by gavage), 5.59 ± 1.96 10^−2. The “best dose for tumor inhibition” value in assay [3] (dose with the highest inhibition rate, gavage) turned out to be 5 mg/kg.
